≈ marks a conversion by molar mass, not a printed value.
Test system: not listed separately
Assay: Aqueous solubility in DMSO at pH 7.4 by quantitative nitrogen detection assay
Assay type: physicochemical
Conditions: aqueous solution with DMSO; call rule not given here

For `COc1cccc(Cn2ncc3c4sc([S+](C)[O-])cc4n(C)c3c2=O)c1` (stereo unspecified), which solubility kinetic is on record?
The solubility kinetic was 37.4 µg/mL (≈ 96.5 µM).

For `Cn1c2cc([S+](C)[O-])sc2c2cnn(Cc3cccc(N)c3)c(=O)c21` (stereo unspecified), which solubility kinetic is on record?
Its solubility kinetic is 29.6 µg/mL (≈ 79.5 µM).

With `Cn1c2cc([S+](C)[O-])sc2c2cnn(Cc3ccccc3F)c(=O)c21` (stereo unspecified) as the molecule, how does the solubility kinetic read?
The solubility kinetic was 4.4 µg/mL (≈ 11.7 µM).

Which solubility kinetic does the source give for `Cc1cc2c(s1)c1cnn(Cc3ccccc3F)c(=O)c1n2C` here?
The solubility kinetic was under 0.2 µg/mL.

Which solubility kinetic does the source give for `Cn1c2cc([S+](C)[O-])sc2c2cnn(Cc3cccc(O)c3)c(=O)c21` (stereo unspecified) here?
The solubility kinetic was 16.9 µg/mL (≈ 45.3 µM).

Target: T1, Pyruvate kinase PKM (Homo sapiens, UniProt P14618)
T1 sequence (P14618 whole entry): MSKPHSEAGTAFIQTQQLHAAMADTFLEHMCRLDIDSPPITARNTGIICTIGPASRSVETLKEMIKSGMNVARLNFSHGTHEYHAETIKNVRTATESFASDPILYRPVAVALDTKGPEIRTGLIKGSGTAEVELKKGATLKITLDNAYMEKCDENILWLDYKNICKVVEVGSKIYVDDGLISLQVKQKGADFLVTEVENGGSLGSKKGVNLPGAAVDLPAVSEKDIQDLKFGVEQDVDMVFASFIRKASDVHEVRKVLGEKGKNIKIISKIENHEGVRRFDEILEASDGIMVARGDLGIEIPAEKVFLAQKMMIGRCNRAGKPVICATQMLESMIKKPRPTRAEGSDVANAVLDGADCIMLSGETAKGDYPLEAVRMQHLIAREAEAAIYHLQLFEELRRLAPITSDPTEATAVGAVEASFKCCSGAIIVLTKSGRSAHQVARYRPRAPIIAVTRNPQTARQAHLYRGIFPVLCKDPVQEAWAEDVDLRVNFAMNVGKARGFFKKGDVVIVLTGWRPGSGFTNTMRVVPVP
Conditions: not given

For `Cc1cc2[nH]c3c(=O)n(Cc4ccccc4F)ncc3c2s1`, which AC50 is on record?
Its AC50 is “Not Active”.

For `Cc1cc2c(s1)c1cnn(Cc3ccccc3F)c(=O)c1n2C(C)C`, which AC50 is on record?
Its AC50 is “Not Active”.

With `Cn1c2cc(S(C)(=O)=O)sc2c2cnn(Cc3ccccc3F)c(=O)c21` as the molecule, how does the AC50 read?
The AC50 was “Not Active”.

For `Cc1cc2c(s1)c1cnn(-c3ccccc3)c(=O)c1n2C`, which AC50 is on record?
The AC50 was “Not Active”.

Target: T1, Pyruvate kinase PKM
Conditions: not given
Remark: another data set of the same source

For `CC(O)c1cc2c(s1)c1cnn(Cc3ccccc3F)c(=O)c1n2C` (stereo unspecified), which AC50 is on record?
The AC50 was 136 nM.

For `CC(=O)Nc1cc2c(s1)c1cnn(Cc3ccccc3F)c(=O)c1n2C`, which AC50 is on record?
Its AC50 is over 25000 nM.

For `Cc1ccc(Cn2ncc3c4sc(C)cc4n(C)c3c2=O)c(F)c1`, which AC50 is on record?
Its AC50 is 108 nM.

For `COc1cccc(Cn2ncc3c4sc([S+](C)[O-])cc4n(C)c3c2=O)c1` (stereo unspecified), which AC50 is on record?
Its AC50 is 73 nM.

Which AC50 does the source give for `CCn1c2cc(C)sc2c2cnn(Cc3ccccc3F)c(=O)c21` here?
The AC50 was 5900 nM.

With `Cc1cc2c(s1)c1cnn(Cc3ccc(C(F)(F)F)cc3F)c(=O)c1n2C` as the molecule, how does the AC50 read?
The AC50 was over 15000 nM.

Which AC50 does the source give for `Cn1c2cc(B(O)O)sc2c2cnn(Cc3ccccc3F)c(=O)c21` here?
The AC50 was over 10000 nM.

For `CCCCCn1ncc2c3sc(C)cc3n(C)c2c1=O`, which AC50 is on record?
Its AC50 is over 35000 nM.

For `Cn1c2ccsc2c2ncn(Cc3ccccc3F)c(=O)c21`, which AC50 is on record?
Its AC50 is over 35000 nM.

Which AC50 does the source give for `Cc1cc2c(s1)c1c(C)nn(Cc3ccccc3F)c(=O)c1n2C` here?
The AC50 was over 30000 nM.

Which AC50 does the source give for `COc1ccc(Cn2ncc3c4sc(C)cc4n(C)c3c2=O)cc1F` here?
Its AC50 is 225 nM.

For `Cn1c2cc([S+](C)[O-])sc2c2cnn(Cc3cccc(O)c3)c(=O)c21` (stereo unspecified), which AC50 is on record?
Its AC50 is 130 nM.
